Measurements: US4223019A, “Synthetic peptides having pituitary growth hormone releasing activity” (Beckman Instruments, Inc., priority 1979, dated 1980)
Square brackets hold non-standard residues; d marks the D form. Peptide text beside a SMILES is read from it.

Tested on: pituitaries removed from 20 day old female rats
Assay: In Vitro Growth Hormone Release Study
Assay type: cell-based, rat
Details: mean ± SEM, control -180 ± 108
Experimental: Female rats of the CD-1 strain were housed in a constant temperature room at 24° C. with 14 hours light and 10 hours darkness. The rats were fed Purina brand rat chow ab libitum.
All studies were started between 0800 and 1000 hours.
Pituitaries were removed from 20 day old female rats. Two pituitaries were incubated at 36° C. in 1 ml of lactated Ringer's solution in 10 ml polytetrafluoroethylene beakers in a Dubnoff Shaker (90 cycles/min.). The pituitaries were incubated a total of 4 hours (P1, P2, I3, and I4). After two successive one hour preincubation periods (P1, P2), the peptide was added to the incubation medium hourly for 2 hours (I3, I4).
This in vitro study was performed in triplicate and a standard radioimmunoassay of growth hormone present in the incubation medium was performed in duplicate. The hormonal activity was calculated as the difference (Δ) of growth hormone (GH) levels between I3, I4 and P2, i.e., (I3 -P2) and (I4 -P2). P values were calculated by Students' t test using six growth hormone values for each value recorded.
The growth hormone radioimmunoassay reagents were distributed by the National Institute of Arthritis and […] (NIAMDD) program. The growth hormone values were calculated in terms of nanograms (ng) of a rat standard with a growth hormone potency of 0.61 units/mg.

NCCCC[C@@H](N)C(=O)N[C@@H](Cc1ccc(O)cc1)C(=O)N[C@H](Cc1c[nH]c2ccccc12)C(=O)N[C@H](Cc1c[nH]c2ccccc12)C(=O)N[C@@H](Cc1ccccc1)C(N)=O [H2 N--D--Lys--Tyr--D--Trp--D--Trp--Phe--CONH2] (H-[dK]Y[dW][dW]F-NH2)
IN VITRO GROWTH HORMONE RELEASE (ΔGH, I3-P2 and I4-P2) (peptide 1μg, P Value <0.01): 1046 ± 266 ngΔGH/ml incubation medium
IN VITRO GROWTH HORMONE RELEASE (ΔGH, I3-P2 and I4-P2) (peptide 20μg, P Value <0.001): 1487 ± 197 ngΔGH/ml incubation medium
IN VITRO GROWTH HORMONE RELEASE (ΔGH, I3-P2 and I4-P2) (peptide 100μg, P Value <0.001): 1654 ± 329 ngΔGH/ml incubation medium
